Measured values reported in EP1986670B1, “INTESTINAL ALPHA-GLUCOSIDASE INHIBITORS AND A PROCESS FOR THE ISOLATION AND USE THEREOF” (Council of Scientific and Industrial Research, priority 2006, dated 2007).

Biological target: intestinal α-glucosidase
Assay: Assay for intestinal α-glucosidase inhibition (p-nitrophenyl α-D-glucopyranoside substrate, read at 405 nm)
Type: biochemical, Rat
Settings: for Intestinal α-glucosidase inhibitory activity IC50 VALUES: crude enzyme from rat intestinal acetone powder, substrate p-nitrophenyl α-D-glucopyranoside, phosphate buffer pH6.8, triplicate
Experimental: Example 2: Assay for intestinal α-glucosidase inhibition:- Rat intestinal acetone powder (sigma chemicals, USA) in normal saline in ration of 100:1 (w/v) was sonicated properly. Supernatant obtained after centrifugation at 3000rpm x 30 min at 25°C was treated as crude source of mammalian intestinal α-glucosidase 10 µL of test samples prepared from either extracts or the molecules (5mg/ml in DMSO) were incubated in 100µL of 100 mM phosphate buffer (pH6.8) with 50 µL of crude enzyme for 5 minutes. Thereafter 50 µL of substrate (5mM, p-nitrophenyl α-D-glucopyranoside prepared in the buffer)was added. After 5 minutes incubation, released p-nitro phenol was read at 405nm spectrophotometrically. For control and blank readings at the place of test samples 10 µL of DMSO and at the place of substrate 50 µL of buffer was added: In order to compensate interference from colored compounds there individual blanks were prepared and spectophotpmetric reading were evaluated accordingly the percent inhibition was calculated as follows:- […] [formula] and 50% inhibitory concentration(IC50)for test samples were calculated by applying suitable regression analysis from the data obtain from serial dilution of the test samples concentrations. Each test sample and other control samples were run in triplicate.

SMILES	in vitro α-glucosidase inhibitory activity IC50 [µg/mL]	Intestinal α-glucosidase inhibitory activity IC50 VALUES [µg/mL]
COC(=O)[C@H]1O[C@@H](Oc2cc3oc(-c4ccccc4)cc(=O)c3c(O)c2OC)[C@H](O)[C@@H](O)[C@@H]1O [Oroxyloside methyl ester]	97.31	97.31
COc1c(O)cc2oc(-c3ccccc3)cc(=O)c2c1O [Oroxylin-A, 5,7-Dihydroxy-6-methoxy-2-phenyl-chromen-4-one]	25.90	25.90
O=c1cc(-c2ccccc2)oc2cc(O)cc(O)c12 [Chrysin, 5,7-dihydroxy-2-phenyl-chromen-4-one]	57.59	57.59
O=c1cc(-c2ccccc2)oc2cc(O)c(O)c(O)c12 [Baicalein, 5,6,7-trihydroxy-2-phenyl-chromen-4-one]	38.71	38.71
COc1cc(O)c2c(=O)cc(-c3ccccc3)oc2c1 [Methoxy chrysin, 5-hydroxy-7-methoxy-2-phenyl-chromen-4-one]		95.39
